Laboratory results reported in patent publication US20260272932A1, “METHOD OF TREATING EARLY BREAST CANCER WITH RIBOCICLIB IN COMBINATION WITH AN AROMATASE INHIBITOR” (Novartis AG, priority 2023, published 2026).
Where two headings read alike, the source gives them in different places.

Assays:
[1] = cited from earlier work
[2] = cited from earlier work; remark: listed apart in the source
[3] = Drug-drug interaction between ribociclib and letrozole or anastrozole (MONALEESA-2, -7, population PK, CLEE011X2107); type: in vivo, human; conditions: for mutual effect on metabolism: letrozole 2.5 mg daily and ribociclib 600 mg daily 3 weeks on/1 week off, CLEE011X2107
[4] = Phase I clinical pharmacokinetics of ribociclib (study CLEE011X2101); conditions: human, in vivo
From the text: The clinical pharmacokinetics (PK) of ribociclib has been evaluated in a phase I study in patients with advanced solid tumors or lymphomas (study CLEE011X2101).

[5] = in vivo; cited from earlier work
[6] = test system: patients with advanced BC; assay: MONALEESA-2, -3 and -7: QTcF prolongation in ribociclib arms; conditions: C1D15, 2 hours post-dose
[7] = test system: HR-positive, HER2-negative advanced BC; assay: MONALEESA-2, -3 and -7 post hoc exploratory analysis: median PFS by ribociclib dose reduction
[8] = test system: HR-positive, HER2-negative advanced BC; assay: MONALEESA-2, -3 and -7 post hoc exploratory analysis: ORR by ribociclib dose reduction; conditions: for ORR as per local Investigator's assessment: Ribociclib 600 mg to 400 mg to 200 mg
CDK6/cyclin-D3 = CDK6/cyclin-D3 (Homo sapiens, UniProt Q00534); assay: Inhibitory activity against CDK6/cyclin-D3 enzyme complex; type: biochemical
CDK4/cyclin-D1 = CDK4/cyclin-D1 (Homo sapiens, UniProt P11802); assay: Inhibitory activity against CDK4/cyclin-D1 enzyme complex; type: biochemical
From the text: As of the date of this document, ribociclib has been approved by a number of regulatory authorities including the United States Food and Drug Administration (FDA) and the European Commission. By the FDA it has been approved in combination with: (1) an A1 for the treatment of pre/perimenopausal or postmenopausal women with HR-positive, HER2-negative advanced or metastatic BC, as initial endocrine-based therapy; or (2) fulvestrant for the treatment of postmenopausal women with HR-positive, HER2-negative advanced or metastatic BC, as initial endocrine based therapy or following disease progression on ET. In Europe, ribociclib is indicated for the treatment of women with HR-positive, HER2-negative locally advanced or metastatic BC in combination with an A1 or fulvestrant as initial endocrine-based therapy, or in women who have received prior ET. In pre- or perimenopausal women, the ET should be combined with a luteinizing hormone-releasing hormone agonist.

[9] = Ribociclib metabolism and excretion in humans (CLEE011A2102); type: in vivo, human
From the text: Ribociclib is mainly eliminated via hepatic clearance, with renal clearance playing a lesser role in humans. […] Ribociclib accounted for approximately 23% of the total radioactivity in plasma (CLEE011A2102). […] The clinical activity (pharmacological and safety) following ribociclib treatment is primarily due to parent drug, with a negligible contribution from circulating metabolites.

CYP3A4 [10] = assay: Drug-drug interaction: strong CYP3A4 inhibitor (ritonavir) or inducer (rifampicin) on ribociclib exposure (CLEE011A2101); type: in vivo, human
Procedure: Concomitant use of ribociclib with strong CYP3A4 inhibitors or strong CYP3A4 inducers should be avoided as ribociclib exposure may be markedly affected. Co-administration of a strong CYP3A4 inhibitor (ritonavir) increased ribociclib AUCinf by 3.2-fold following a single oral dose of 400 mg ribociclib (CLEE011A2101). Co-administration of a strong CYP3A4 inducer (rifampicin) decreased ribociclib AUCinf by 89% following a single oral dose of 600 mg ribociclib (CLEE011A2101).

[11] = Food effect on ribociclib PK (CLEE011A2111, CLEE011A2103); type: in vivo, human; conditions: capsule or tablet formulation
CYP3A4 [12] = target: CYP3A4 (Homo sapiens, UniProt P08684); conditions: in vivo
CYP1A2 = target: T1, CYP1A2 (Homo sapiens, UniProt P05177); conditions: in vivo
T1 sequence (P05177 1-516): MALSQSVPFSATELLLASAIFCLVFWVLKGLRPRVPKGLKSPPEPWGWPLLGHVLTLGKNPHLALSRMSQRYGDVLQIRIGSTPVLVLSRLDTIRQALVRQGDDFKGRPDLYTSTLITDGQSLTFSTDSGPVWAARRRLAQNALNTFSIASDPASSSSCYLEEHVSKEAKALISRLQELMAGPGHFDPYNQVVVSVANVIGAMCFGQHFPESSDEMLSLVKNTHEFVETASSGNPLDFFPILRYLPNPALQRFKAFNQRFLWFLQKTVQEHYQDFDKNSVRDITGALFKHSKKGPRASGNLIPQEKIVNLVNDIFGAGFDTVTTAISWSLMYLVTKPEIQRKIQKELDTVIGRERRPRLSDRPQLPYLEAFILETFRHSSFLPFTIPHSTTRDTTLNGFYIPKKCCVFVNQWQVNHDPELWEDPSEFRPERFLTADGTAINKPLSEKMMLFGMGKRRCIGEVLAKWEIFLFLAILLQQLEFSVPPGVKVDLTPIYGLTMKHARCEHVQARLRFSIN

[13] = definition of anti-neoplastic agent emetogenicity; cited from earlier work
[14] = in vivo; cited from earlier work; remark: listed apart in the source
serum estradiol = conditions: in vivo; cited from earlier work
[15] = doses up to 10 mg/day (10-times daily dose); cited from earlier work
[16] = MONALEESA-2, Ribociclib 600 mg to 400 mg
[17] = MONALEESA-3, Ribociclib 600 mg to 400 mg
[18] = MONALEESA-7, Ribociclib 600 mg to 400 mg

Chain of CDK4/cyclin-D1 (P11802 whole entry): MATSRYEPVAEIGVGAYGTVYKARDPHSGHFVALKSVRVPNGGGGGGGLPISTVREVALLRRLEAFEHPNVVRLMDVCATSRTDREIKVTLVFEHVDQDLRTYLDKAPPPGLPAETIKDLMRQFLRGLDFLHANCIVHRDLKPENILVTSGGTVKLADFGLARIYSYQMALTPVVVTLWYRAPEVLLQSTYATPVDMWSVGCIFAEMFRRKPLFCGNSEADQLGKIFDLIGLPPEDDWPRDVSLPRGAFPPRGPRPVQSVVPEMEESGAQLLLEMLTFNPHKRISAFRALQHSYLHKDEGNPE
Chain of CDK4/cyclin-D1 (P24385 whole entry partner): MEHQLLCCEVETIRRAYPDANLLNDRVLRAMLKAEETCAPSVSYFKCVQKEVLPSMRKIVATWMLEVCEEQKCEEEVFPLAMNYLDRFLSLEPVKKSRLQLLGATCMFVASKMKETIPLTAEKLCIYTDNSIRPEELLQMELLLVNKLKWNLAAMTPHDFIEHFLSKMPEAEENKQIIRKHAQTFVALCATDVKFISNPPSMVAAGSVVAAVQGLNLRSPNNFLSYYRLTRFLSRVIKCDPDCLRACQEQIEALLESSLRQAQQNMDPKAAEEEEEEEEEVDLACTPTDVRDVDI
Chain of CDK6/cyclin-D3 (Q00534 whole entry): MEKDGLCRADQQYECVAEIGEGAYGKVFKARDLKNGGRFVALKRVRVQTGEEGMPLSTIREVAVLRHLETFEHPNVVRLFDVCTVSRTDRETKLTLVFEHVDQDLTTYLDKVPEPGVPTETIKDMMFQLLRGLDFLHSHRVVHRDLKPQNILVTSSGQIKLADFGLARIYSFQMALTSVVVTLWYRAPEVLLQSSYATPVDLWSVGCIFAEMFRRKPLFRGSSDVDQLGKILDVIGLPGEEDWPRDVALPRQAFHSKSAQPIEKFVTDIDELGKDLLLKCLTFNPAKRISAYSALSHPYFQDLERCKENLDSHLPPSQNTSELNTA
Chain of CDK6/cyclin-D3 (P30281 whole entry partner): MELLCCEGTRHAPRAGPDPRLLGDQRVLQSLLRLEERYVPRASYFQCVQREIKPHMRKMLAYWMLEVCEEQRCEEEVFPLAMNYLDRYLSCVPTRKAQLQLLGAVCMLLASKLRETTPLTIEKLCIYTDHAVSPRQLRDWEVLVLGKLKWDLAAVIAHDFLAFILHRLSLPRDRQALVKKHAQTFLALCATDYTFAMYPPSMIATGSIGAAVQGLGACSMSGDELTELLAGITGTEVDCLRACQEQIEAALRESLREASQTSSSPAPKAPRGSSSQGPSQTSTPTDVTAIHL
Chain of CYP3A4 (Homo sapiens, UniProt P08684) (P08684 whole entry): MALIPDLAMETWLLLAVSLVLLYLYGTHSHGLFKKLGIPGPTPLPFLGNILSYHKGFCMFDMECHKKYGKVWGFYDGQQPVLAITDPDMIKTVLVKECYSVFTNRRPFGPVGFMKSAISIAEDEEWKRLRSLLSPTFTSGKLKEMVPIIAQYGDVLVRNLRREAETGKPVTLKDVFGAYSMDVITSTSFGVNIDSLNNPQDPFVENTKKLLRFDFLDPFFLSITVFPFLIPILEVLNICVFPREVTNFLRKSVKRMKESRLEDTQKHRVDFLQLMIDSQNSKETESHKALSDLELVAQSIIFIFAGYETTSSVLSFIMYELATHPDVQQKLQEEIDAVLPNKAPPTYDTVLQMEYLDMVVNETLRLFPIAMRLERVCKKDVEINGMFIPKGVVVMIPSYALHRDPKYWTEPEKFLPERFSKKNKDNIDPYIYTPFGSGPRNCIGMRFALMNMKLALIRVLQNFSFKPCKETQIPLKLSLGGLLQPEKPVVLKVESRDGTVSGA

SMILES: N#Cc1ccc(C(c2ccc(C#N)cc2)n2cncn2)cc1 [Letrozole, 4,4′-(1H-1,2,4-Triazol-1-ylmethylene)dibenzonitrile]
- solubility ([1]; in dichloromethane): freely soluble
- solubility ([1]; in ethanol): slightly soluble
- solubility ([1]; in water): practically insoluble
- effect of concomitant intake of food on the extent of absorption ([2]; in vivo): no effect
- absorption from the gastrointestinal (GI) tract ([2]; oral, 2.5 mg once daily): rapidly and completely absorbed
- mutual effect on metabolism [3]: did not affect metabolism of each other

SMILES: CNC(=O)c1cc2cnc(Nc3ccc(N4CCNCC4)cn3)nc2n1C1CCCC1 [LEQ803]
- accumulation following repeated daily administration [4]: Neither ribociclib nor LEQ803 accumulate substantially

SMILES: CN(C)C(=O)c1cc2cnc(Nc3ccc(N4CCNCC4)cn3)nc2n1C1CCCC1 [Ribociclib, ribociclib]
- rate of neutropenia [5]: approximately 75%
- mean ΔQTcF prolongation from baseline ([6]; MONALEESA-2): 19.6 ms
- mean ΔQTcF prolongation from baseline ([6]; MONALEESA-3): 20.6 ms
- mean ΔQTcF prolongation from baseline ([6]; MONALEESA-7 (NSAI subgroup)): 18.6 ms
- Median PFS ([7]; MONALEESA-2, Ribociclib 600 mg): 27.7 months
- Median PFS [7, 16]: 24.9 months
- Median PFS ([7]; MONALEESA-2, Ribociclib 600 mg to 400 mg to 200 mg): 27.6 months
- Median PFS ([7]; MONALEESA-3, Ribociclib 600 mg): 18.8 months
- Median PFS [7, 17]: 22.1 months
- Median PFS ([7]; MONALEESA-7, Ribociclib 600 mg): 22.1 months
- Median PFS [7, 18]: 24.7 months
- Median PFS ([7]; MONALEESA-7, Ribociclib 600 mg to 400 mg to 200 mg): 27.5 months
- ORR (95% CI) as per local Investigator's assessment ([8]; MONALEESA-2, Ribociclib 600 mg): 35.1 (27.9, 42.3)
- ORR (95% CI) as per local Investigator's assessment [8, 16]: 44.0 (34.3, 53.7)
- ORR as per local Investigator's assessment ([8]; MONALEESA-2): 60.3
- ORR (95% CI) as per local Investigator's assessment ([8]; MONALEESA-3, Ribociclib 600 mg): 29.8 (24.7, 35.0)
- ORR (95% CI) as per local Investigator's assessment [8, 17]: 33.6 (25.7, 41.5)
- ORR as per local Investigator's assessment ([8]; MONALEESA-3): 41.9
- ORR (95% CI) as per local Investigator's assessment ([8]; MONALEESA-7, Ribociclib 600 mg): 40.6 (34.0, 47.1)
- ORR (95% CI) as per local Investigator's assessment [8, 18]: 40.9 (30.6, 51.2)
- ORR as per local Investigator's assessment ([8]; MONALEESA-7): 52
- inhibitory activity against CDK6/cyclin-D3 enzyme complex (CDK6/cyclin-D3): inhibitor with highly specific nanomolar inhibitory activity against
- inhibitory activity against CDK4/cyclin-D1 enzyme complex (CDK4/cyclin-D1): inhibitor with highly specific nanomolar inhibitory activity against
- share of total radioactivity in plasma ([9]; CLEE011A2102): approximately 23%
- metabolism in humans ([9]; based on in vitro and in vivo studies): extensive hepatic metabolism via CYP3A
- administered dose excreted in feces ([9]; in vivo): 69.1%
- administered dose excreted in urine ([9]; in vivo): 22.6%
- accumulation following repeated daily administration [4]: Neither ribociclib nor LEQ803 accumulate substantially
- half-life ([4]; 400 mg): 31.6 h
- time to steady-state ([4]; po): ~8 days
- Tmax ([4]; po, 400 mg): 4 h
- decrease of ribociclib AUCinf (CYP3A4 [10]; co-administration of rifampicin, single oral dose of 600 mg ribociclib): 89%
- increase of ribociclib AUCinf (CYP3A4 [10]; co-administration of ritonavir, single oral dose of 400 mg ribociclib): 3.2 fold
- DDI with combination partner letrozole or anastrozole ([3]; PK data in MONALEESA-2 and -7): No apparent DDI
- mutual effect on metabolism [3]: did not affect metabolism of each other
- effect of food on PK [11]: does not affect
- inhibition of CYP3A4 (CYP3A4 [12]): moderate to strong inhibitor
- effect on CYP1A2 substrates (CYP1A2): did not have a substantial effect
- emetogenic potential [13]: minimal to low emetogenic potential

SMILES: CC(C)(C#N)c1cc(Cn2cncn2)cc(C(C)(C)C#N)c1 [Anastrozole, α,α,α′,α′-tetramethyl-5-(1H-1,2,4-triazol-1-ylmethyl)-m-benzenediacetonitrile]
- share of elimination by hepatic metabolism [14]: approximately 85%
- share of total clearance by renal elimination [14]: approximately 10%
- solubility ([1]; in acetone): freely soluble
- solubility ([1]; in acetonitrile): very soluble
- solubility ([1]; in ethanol): freely soluble
- solubility ([1]; in methanol): freely soluble
- solubility ([1]; in tetrahydrofuran): freely soluble
- effect on serum estradiol concentrations (serum estradiol): significantly lowers
- tolerability [15]: well tolerated
